Assay results taken from ChEMBL document CHEMBL3872236, “Discovery of 2-((2-chloro-6-fluorophenyl)amino)-N-(3-fluoro-5-(trifluoromethyl)phenyl)-1-methyl-7,8-dihydro-1H-[1,4]dioxino[2',3':3,4]benzo[1,2-d]imidazole-5-carboxamide as potent, selective and efficacious microsomal prostaglandin E2 synthase-1 (mPGES-1) inhibitor” (Bioorg Med Chem Lett, 2016).

Experiments:
in vitro [1] = conditions: rat, liver microsomes
in vitro [2] = conditions: human, liver microsomes
in vitro [3] = conditions: guinea pig, liver microsomes

Compound `O=C(Nc1cc(F)cc(C(F)(F)F)c1)c1cc2nc(Nc3c(F)cccc3Cl)[nH]c2c2c1OCCO2` has a remaining at 1 h, 1 µM (in vitro [1]) of 93.8%, a remaining at 1 h, 1 µM (in vitro [2]) of 98.2% and a remaining at 1 h, 1 µM (in vitro [3]) of 95.8%.
